Experimental findings from US9617267B2, “Compounds and methods for kinase modulation, and indications therefor” (Plexxikon Inc., priority 2009, dated 2017) are described below.

Where two headings read alike, the source gives them in different places.

Data set [1] addresses B-Raf (Homo sapiens (Human), UniProt P15056). Kind of data set: B-Raf kinase activity biochemical assay (AlphaScreen, biotin-MEK1 phosphorylation). Particulars: B-Raf. As for the experimental part:
(§1) Compounds to be tested are diluted in dimethyl sulfoxide to a concentration of 0.1 mM. These are serially diluted 15 μL into 30 μL of dimethyl sulfoxide seven times in 96 well plates for a total of 8 dilution points, and for each dilution point 1 μL is added to a well of an assay plate. […] The reaction is started with addition of 10 μL of 200 μM ATP (i.e. final 100 μM ATP). After incubation of the kinase reaction for 45 minutes at room temperature, 5 μL/well of Stop Solution is added (25 mM Hepes pH 7.5, 100 mM EDTA, 0.01% BSA with donor beads (Streptavidin coated beads, Perkin Elmer), acceptor beads (Protein A coated, Perkin Elmer), and anti phosphor MEK1/2 antibody (CellSignal), each at final concentration 10 μg/mL). The plates are incubated for 3 hours at room temperature and read on Envision reader (Perkin Elmer). […] The signal vs. compound concentration is used to determine the IC50.
A general note: Alpha assays give light when donor and acceptor beads are brought close together.

Data set [2] concerns B-Raf. The data set is described as above. Particulars: for Biochemical activity ratio B/V600E: ratio of IC50 B-Raf / B-Raf V600E; for Biochemical activity ratio B/C: ratio of IC50 B-Raf / c-Raf-1. As for the experimental part: as §1
For data set [3], the target named is B-Raf V600E (Homo sapiens (Human), UniProt P15056, V600E). Kind of data set: B-Raf V600E kinase activity biochemical assay (AlphaScreen, biotin-MEK1 phosphorylation). To be noted: for IC50: B-Raf V600E; for Biochemical activity ratio V600E/C: ratio of IC50 B-Raf V600E / c-Raf-1. As for the experimental part:
as §1

Data set [4] addresses c-Raf-1 (Homo sapiens, UniProt P04049). The experiment in a line: c-Raf-1 kinase activity biochemical assay (AlphaScreen, biotin-MEK1 phosphorylation). As for the experimental part:
as §1

Data set [5] can be described thus: Relative solubility by turbidity threshold concentration in aqueous buffers (pH 1.5, 4.5, 6.8, 7.4). The format is physicochemical. Particulars: for turbidity threshold (L, M, H) 1.4: pH 1.4 [sic] (method: SGF pH 1.5); for turbidity threshold (L, M, H) 4.5: pH 4.5 (SIF); for turbidity threshold (L, M, H) 6.8: pH 6.8 (SIF); for turbidity threshold (L, M, H) 7.4: pH 7.4 (HEPES). As for the experimental part: As an indication of relative solubility, the turbidity of compounds in aqueous solutions is assessed. To assess possible compound properties in different physiological compartments, such as stomach, intestine, and blood, a series of aqueous buffers with varying pH is used. Thus each compound is diluted into four different physiologically relevant buffers and solution turbidity is measured by spectrophotometry.
Compounds are dissolved at a concentration of 25 mM in dimethyl sulfoxide, then serially diluted 1:1 into a 96 well plate, diluting 10 times in pure dimethyl sulfoxide, with the final well of each row a dimethyl sulfoxide blank. In an assay plate, 99 μL of appropriate buffer is added to each well, and 1 μL of each sample dilution is added to the buffer, achieving a range of final total concentrations in aqueous solutions having different pH. The buffers used are Simulated Gastric Fluid (SGF-pH 1.5) 0.5M NaCl, pH 1.5; Simulated Intestinal fluid (SIF-pH 4.5 and pH 6.8) 0.05M NaH2PO4, pH 4.5 and 6.8; and Hepes Buffer (HEPES-pH 7.4) 10 mM HEPES, 150 mM NaCl, pH 7.4. Control compounds pyrene, estriol and propranolol HCl are also assessed. Plates are spun and then mixed for 1 minute, and the absorbance is read using a Tecan Safire II to read wavelengths in the visible range (490, 535, and 650 nm) at four locations per well, reflecting the degree of turbidity present. The average optical density for each wavelength in each well is graphed vs. compound concentration, and the concentration at which the curve crosses a threshold O.D. of 0.01 for each wavelength is reported as the endpoint turbidity assay result. The average of the three wavelengths is used to compare turbidity of compounds. Compounds are considered to have low solubility if the threshold concentration is <31.3 μM, moderate solubility if the threshold concentration is 31.3 μM to 250 μM, and high solubility if the threshold concentration is >250 μm.
The following table indicates the relative solubility (L=low, M=moderate, H=high) based on turbidity threshold concentration at each pH for exemplary compounds according to the invention as indicated: […]

The target of data set [6] is CYP1A2 (Homo sapiens (Human), UniProt P05177). The experiment in a line: CYP enzyme inhibition, fluorescent substrate (CEC). To be noted: human, 15 min. As for the experimental part: (§2) CYP (Cytochrome P450) enzymes are the major drug metabolizing enzymes present in the liver. The inhibition of CYP enzyme activity (IC50) for each of CYP1A2, CYP2C19, CYP2C9, CYP2D6, CYP3A4(BFC) and CYP3A4(BQ) is determined for compounds, where inhibition of metabolism of a known substrate leads to a decrease in the fluorescence of the metabolized product. The fluorescence of the product is monitored as a function of compound concentration.
Chain of CYP1A2 (P05177 whole entry): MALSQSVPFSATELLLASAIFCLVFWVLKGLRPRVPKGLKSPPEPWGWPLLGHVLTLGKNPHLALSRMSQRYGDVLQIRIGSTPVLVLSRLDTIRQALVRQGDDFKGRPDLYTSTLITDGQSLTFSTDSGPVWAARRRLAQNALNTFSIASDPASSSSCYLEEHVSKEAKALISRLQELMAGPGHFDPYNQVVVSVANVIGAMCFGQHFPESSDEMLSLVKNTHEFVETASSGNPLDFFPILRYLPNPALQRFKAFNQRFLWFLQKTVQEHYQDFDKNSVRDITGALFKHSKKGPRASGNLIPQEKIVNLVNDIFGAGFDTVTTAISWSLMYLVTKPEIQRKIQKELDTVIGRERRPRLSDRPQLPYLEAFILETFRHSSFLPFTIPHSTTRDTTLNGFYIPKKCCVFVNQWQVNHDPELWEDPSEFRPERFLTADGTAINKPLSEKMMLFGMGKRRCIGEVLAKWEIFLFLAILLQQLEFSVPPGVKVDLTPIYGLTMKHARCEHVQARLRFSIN
(§3) Compounds are dissolved in dimethyl sulfoxide to a concentration of 100 mM. These are diluted 1 μL into 82 μL of acetonitrile. An 11 μL aliquot of this solution is then added to 204 μL of cofactor mix (1.3% NADPH Regeneration system Solution A, 1.04% NADPH Regeneration system Solution B from BD Biosciences, 5% acetonitrile and 0.05% dimethyl sulfoxide). These are then serially diluted 1:1 (160 μL to 160 μL co-factor mix) for a total of 10 points. A 10 μL aliquot of this final mixture is dispensed into 384 well assay plates and incubated for 10 minutes at 37° C. Enzyme and substrate mix (10 μL; 0.5 pmol CYP1A2/5 μM CEC; 1.0 pmol CYP2C9/75 μM MFC; 0.5 pmol CYP2C19/25 μM CEC; 1.5 pmol CYP2D6/1.5 μM AMMC; 1.0 pmol CYP3A4/50 μM BFC; or 1.0 pmol CYP3A4/40 μM BQ) is added to these assay plates. Assay plates are incubated at 37° C. (CYP1A2-15 min; CYP2C9-45 min; CYP2C19, 2D6 and 3A4-30 min) and read in a Tecan Safire 2 plate reader (CYP1A2, 2C19 and 3A4 409 ex/460 em; CYP2C9 and 2D6 409 ex/530 em). The signal versus compound concentration is used to determine the IC50. The enzymes and substrates for this assay are obtained from BD Biosciences.

The target in data set [7] is CYP2C19 (Homo sapiens (Human), UniProt P33261). Kind of data set: CYP enzyme inhibition, fluorescent substrate (CEC). As for the experimental part: as §2
Chain of CYP2C19 (P33261 whole entry): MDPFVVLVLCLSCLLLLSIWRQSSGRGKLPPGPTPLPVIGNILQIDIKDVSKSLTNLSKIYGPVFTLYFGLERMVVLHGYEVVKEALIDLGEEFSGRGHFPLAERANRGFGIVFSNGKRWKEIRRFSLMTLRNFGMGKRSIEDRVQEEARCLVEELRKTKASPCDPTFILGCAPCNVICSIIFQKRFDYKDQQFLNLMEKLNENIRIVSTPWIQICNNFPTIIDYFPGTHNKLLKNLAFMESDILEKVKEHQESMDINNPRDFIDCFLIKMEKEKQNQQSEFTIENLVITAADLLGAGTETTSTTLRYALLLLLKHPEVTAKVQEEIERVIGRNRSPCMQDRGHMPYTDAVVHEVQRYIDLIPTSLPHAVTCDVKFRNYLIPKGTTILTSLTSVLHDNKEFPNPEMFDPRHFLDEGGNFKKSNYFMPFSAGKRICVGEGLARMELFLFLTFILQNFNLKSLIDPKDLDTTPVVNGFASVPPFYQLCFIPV
(§4) Compounds are dissolved in dimethyl sulfoxide to a concentration of 100 mM. These are diluted 1 μL into 82 μL of acetonitrile. […] These are then serially diluted 1:1 (160 μL to 160 μL co-factor mix) for a total of 10 points. A 10 μL aliquot of this final mixture is dispensed into 384 well assay plates and incubated for 10 minutes at 37° C. […] Assay plates are incubated at 37° C. […] The signal versus compound concentration is used to determine the IC50. The enzymes and substrates for this assay are obtained from BD Biosciences.

Data set [8] deals with CYP2C9 (Homo sapiens (Human), UniProt P11712). The experiment in a line: CYP enzyme inhibition, fluorescent substrate (MFC). As for the experimental part: as §2, §4
Chain of CYP2C9 (P11712 whole entry): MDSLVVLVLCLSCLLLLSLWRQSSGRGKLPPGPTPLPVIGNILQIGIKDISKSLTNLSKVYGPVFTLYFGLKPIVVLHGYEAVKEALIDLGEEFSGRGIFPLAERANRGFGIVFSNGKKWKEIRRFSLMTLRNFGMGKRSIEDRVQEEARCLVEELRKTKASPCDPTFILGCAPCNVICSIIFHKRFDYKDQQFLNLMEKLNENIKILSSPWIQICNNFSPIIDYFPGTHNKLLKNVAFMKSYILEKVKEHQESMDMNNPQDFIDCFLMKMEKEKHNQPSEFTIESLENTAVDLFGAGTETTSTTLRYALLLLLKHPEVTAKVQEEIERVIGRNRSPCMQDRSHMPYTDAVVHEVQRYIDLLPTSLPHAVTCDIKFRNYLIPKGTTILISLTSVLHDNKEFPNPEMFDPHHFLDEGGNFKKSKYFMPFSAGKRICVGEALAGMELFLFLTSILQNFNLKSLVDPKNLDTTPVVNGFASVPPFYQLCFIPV
Data set [9] concerns the target CYP2D6 (Homo sapiens (Human), UniProt P10635). The experiment in a line: CYP enzyme inhibition, fluorescent substrate (AMMC). To be noted: read-out: Cyp IC50 2D6. The format is in vitro ADME. As for the experimental part:
as §2, §3

Data set [10] has as its target CYP3A4(BFC) (Homo sapiens (Human), UniProt P08684). Kind of data set: CYP enzyme inhibition, fluorescent substrate BFC. As for the experimental part: as §2, §4
Setting [11] is: read-out: Cyp IC50 2C9, CYP2C9, substrate MFC.

Chain of CYP3A4(BFC) (P08684 whole entry): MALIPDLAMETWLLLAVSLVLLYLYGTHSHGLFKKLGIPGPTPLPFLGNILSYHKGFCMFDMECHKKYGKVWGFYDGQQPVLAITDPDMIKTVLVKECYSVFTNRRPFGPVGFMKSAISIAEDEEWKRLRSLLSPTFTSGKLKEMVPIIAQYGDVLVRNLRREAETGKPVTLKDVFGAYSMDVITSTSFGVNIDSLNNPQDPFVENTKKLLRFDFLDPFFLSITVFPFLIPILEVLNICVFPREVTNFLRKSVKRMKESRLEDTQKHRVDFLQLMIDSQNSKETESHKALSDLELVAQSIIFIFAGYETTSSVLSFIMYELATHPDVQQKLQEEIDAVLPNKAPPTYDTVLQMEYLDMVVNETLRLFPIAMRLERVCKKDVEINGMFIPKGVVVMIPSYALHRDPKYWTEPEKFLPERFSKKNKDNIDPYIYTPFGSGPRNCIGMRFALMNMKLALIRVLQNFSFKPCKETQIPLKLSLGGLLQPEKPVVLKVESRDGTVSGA
Chain of B-Raf V600E (P15056 whole entry V600E): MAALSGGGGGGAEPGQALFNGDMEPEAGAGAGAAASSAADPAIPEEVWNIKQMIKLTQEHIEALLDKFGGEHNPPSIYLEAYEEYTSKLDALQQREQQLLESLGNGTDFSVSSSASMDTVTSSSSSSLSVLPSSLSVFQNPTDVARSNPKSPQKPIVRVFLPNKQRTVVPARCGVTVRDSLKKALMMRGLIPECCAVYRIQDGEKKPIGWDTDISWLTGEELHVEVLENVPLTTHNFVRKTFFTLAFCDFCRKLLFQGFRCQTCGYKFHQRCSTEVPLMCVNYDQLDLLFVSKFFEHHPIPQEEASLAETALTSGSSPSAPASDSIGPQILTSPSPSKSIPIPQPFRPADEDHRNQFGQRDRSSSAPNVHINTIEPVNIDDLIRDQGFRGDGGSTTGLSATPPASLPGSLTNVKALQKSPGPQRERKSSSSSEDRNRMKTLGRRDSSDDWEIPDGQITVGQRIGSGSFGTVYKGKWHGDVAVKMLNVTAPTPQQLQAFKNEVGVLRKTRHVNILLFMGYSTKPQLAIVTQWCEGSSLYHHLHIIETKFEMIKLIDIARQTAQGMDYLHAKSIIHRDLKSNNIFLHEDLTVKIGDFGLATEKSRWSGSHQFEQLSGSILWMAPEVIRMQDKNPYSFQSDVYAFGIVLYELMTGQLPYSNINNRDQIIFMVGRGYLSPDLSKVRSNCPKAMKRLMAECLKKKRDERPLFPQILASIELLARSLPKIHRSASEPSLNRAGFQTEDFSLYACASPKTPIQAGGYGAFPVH
Chain of B-Raf (Homo sapiens (Human), UniProt P15056) (P15056 whole entry): as the sequence (P15056 whole entry V600E) above, with E600V counted along it
Chain of c-Raf-1 (P04049 whole entry, looked up): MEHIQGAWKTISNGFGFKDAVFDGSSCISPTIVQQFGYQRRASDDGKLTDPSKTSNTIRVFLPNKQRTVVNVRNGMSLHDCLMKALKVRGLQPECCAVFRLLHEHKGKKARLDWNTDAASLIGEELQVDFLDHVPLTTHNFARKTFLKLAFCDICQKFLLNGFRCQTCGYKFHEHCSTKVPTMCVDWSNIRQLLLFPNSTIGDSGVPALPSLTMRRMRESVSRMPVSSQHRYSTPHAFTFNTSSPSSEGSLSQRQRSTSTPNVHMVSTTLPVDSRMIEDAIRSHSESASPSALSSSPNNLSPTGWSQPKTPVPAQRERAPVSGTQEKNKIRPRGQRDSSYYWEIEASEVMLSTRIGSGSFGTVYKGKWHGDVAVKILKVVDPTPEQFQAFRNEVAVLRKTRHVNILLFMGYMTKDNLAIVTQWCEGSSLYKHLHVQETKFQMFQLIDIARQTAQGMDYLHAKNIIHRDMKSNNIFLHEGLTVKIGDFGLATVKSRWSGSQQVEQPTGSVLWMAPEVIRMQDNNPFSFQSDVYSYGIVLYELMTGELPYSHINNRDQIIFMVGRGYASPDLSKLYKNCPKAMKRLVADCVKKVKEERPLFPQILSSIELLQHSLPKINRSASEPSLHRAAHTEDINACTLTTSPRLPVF
Chain of CYP2D6 (P10635 whole entry): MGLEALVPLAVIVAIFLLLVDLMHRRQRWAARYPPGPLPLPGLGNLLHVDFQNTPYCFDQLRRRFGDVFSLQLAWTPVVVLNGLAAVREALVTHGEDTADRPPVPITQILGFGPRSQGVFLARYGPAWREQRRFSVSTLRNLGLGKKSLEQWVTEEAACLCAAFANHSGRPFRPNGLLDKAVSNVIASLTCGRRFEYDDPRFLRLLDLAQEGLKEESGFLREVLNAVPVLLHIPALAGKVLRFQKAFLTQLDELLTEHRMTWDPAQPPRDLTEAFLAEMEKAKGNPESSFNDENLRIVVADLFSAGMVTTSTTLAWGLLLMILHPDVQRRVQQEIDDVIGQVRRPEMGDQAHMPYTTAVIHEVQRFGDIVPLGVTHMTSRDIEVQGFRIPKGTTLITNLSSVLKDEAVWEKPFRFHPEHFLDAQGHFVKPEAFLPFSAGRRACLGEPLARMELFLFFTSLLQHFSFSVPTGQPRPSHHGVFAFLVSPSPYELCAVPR

`O=C(c1c(F)ccc(NS(=O)(=O)c2ccc(C(F)(F)F)cc2)c1F)c1c[nH]c2ncnc(NC3CCCC3)c12` [P-1035, N-[3-(4-Cyclopentylamino-7H-pyrrolo[2,3-d]pyrimidine-5-carbonyl)-2,4-difluoro-phenyl]-4-trifluoromethyl-benzenesulfonamide]: the IC50 in [1] was under 0.1 µM; in data set [3], under 0.1 µM; in data set [4], under 0.1 µM; in [6], over 10 µM; in data set [7] it was 5 to 10 µM; in [8] (setting [11]), over 10 µM. For the same compound, the IC50 in data set [9] is over 10 µM; in data set [10] it was 5 to 10 µM. In addition, the “Biochemical activity ratio B/V600E” value in data set [2] is recorded as 0.1-10. Also, the “Biochemical activity ratio B/C” value in data set [2] is given as over 10. Further, in data set [3], the “Biochemical activity ratio V600E/C” value is over 10. Besides, the “turbidity threshold (L, M, H) 1.4” value in data set [5] is “L (low solubility if the threshold concentration is <31.3 μM)”. In data set [5], the “turbidity threshold (L, M, H) 4.5” value is listed as “L (low solubility if the threshold concentration is <31.3 μM)”. In [5], the “turbidity threshold (L, M, H) 6.8” value was “L (low solubility if the threshold concentration is <31.3 μM)”. Also, the “turbidity threshold (L, M, H) 7.4” value in [5] was “L (low solubility if the threshold concentration is <31.3 μM)”.

In data set [1], `O=C(c1c(F)ccc(NS(=O)(=O)c2ccc(C(F)(F)F)cc2)c1F)c1c[nH]c2nccc(NC3CCOCC3)c12` [P-2014, N-{2,4-Difluoro-3-[4-(tetrahydro-pyran-4-ylamino)-1H-pyrrolo[2,3-b]pyridine-3-carbonyl]-phenyl}-4-trifluoromethyl-benzenesulfonamide] returned an IC50 of over 0.1 µM. In [2], the “Biochemical activity ratio B/V600E” value is on record as 0.1-10 and the “Biochemical activity ratio B/C” value is 0.1-10. Also, in data set [3], the IC50 was over 0.1 µM and the “Biochemical activity ratio V600E/C” value is on record as over 10. The compound also had an IC50 in data set [4] of under 0.1 µM. Also, in data set [5], the “turbidity threshold (L, M, H) 1.4” value is on record as “L (low solubility if the threshold concentration is <31.3 μM)”; the “turbidity threshold (L, M, H) 4.5” value is given as “L (low solubility if the threshold concentration is <31.3 μM)”; the “turbidity threshold (L, M, H) 6.8” value is “L (low solubility if the threshold concentration is <31.3 μM)”; the “turbidity threshold (L, M, H) 7.4” value is reported as “L (low solubility if the threshold concentration is <31.3 μM)”.

Regarding `CC(C)Cc1ncnc2[nH]cc(C(=O)c3c(F)ccc(NS(=O)(=O)c4ccc(C(F)(F)F)cc4)c3F)c12` [P-1015, N-[2,4-Difluoro-3-(4-isobutyl-7H-pyrrolo[2,3-d]pyrimidine-5-carbonyl)-phenyl]-4-trifluoromethyl-benzenesulfonamide], the IC50 was over 0.1 µM in data set [1]; over 0.1 µM in [3]; under 0.1 µM in data set [4]; over 10 µM in data set [6]; over 10 µM in data set [7] (read-out: Cyp IC50 2C19, CYP2C19, substrate CEC); over 10 µM in data set [8] (setting [11]). Moreover, the IC50 in [9] is over 10 µM; in [10], 5 to 10 µM. Further, in data set [2], the “Biochemical activity ratio B/V600E” value was 0.1-10. Also, the “Biochemical activity ratio B/C” value in data set [2] was over 10. Further, the “Biochemical activity ratio V600E/C” value in data set [3] is listed as over 10.

In turn, `O=C(c1c(F)ccc(NS(=O)(=O)c2ccccc2)c1F)c1c[nH]c2nccc(C(F)(F)F)c12` [P-2017, N-[2,4-Difluoro-3-(4-trifluoromethyl-1H-pyrrolo[2,3-b]pyridine-3-carbonyl)-phenyl]-benzenesulfonamide] displayed an IC50 in data set [1] of over 0.1 µM. In data set [2], the “Biochemical activity ratio B/V600E” value is 0.1-10 and the “Biochemical activity ratio B/C” value was over 10. Further, in data set [3], the IC50 was over 0.1 µM and the “Biochemical activity ratio V600E/C” value was over 10. This compound showed a concentration for half-maximal inhibition (IC50) in [4] of under 0.1 µM. For the same compound, in [5], the “turbidity threshold (L, M, H) 1.4” value is “L (low solubility if the threshold concentration is <31.3 μM)”; the “turbidity threshold (L, M, H) 4.5” value is listed as “L (low solubility if the threshold concentration is <31.3 μM)”; the “turbidity threshold (L, M, H) 6.8” value is listed as “L (low solubility if the threshold concentration is <31.3 μM)”; the “turbidity threshold (L, M, H) 7.4” value is listed as “M (moderate solubility if the threshold concentration is 31.3 μM to 250 μM)”.

`CCCc1ccc(S(=O)(=O)Nc2ccc(F)c(C(=O)c3c[nH]c4ncnc(OCC)c34)c2F)cc1` [P-1038, N-[3-(4-Ethoxy-7H-pyrrolo[2,3-d]pyrimidine-5-carbonyl)-2,4-difluoro-phenyl]-4-propyl-benzenesulfonamide]: the IC50 in data set [1] is under 0.1 µM; in data set [3], over 0.1 µM; in [4], under 0.1 µM; in [6] it was over 10 µM; in data set [7] it was 5 to 10 µM; in [8] it was 5 to 10 µM. The 50% inhibitory concentration (IC50) in data set [9] is over 10 µM; in data set [10], 5 to 10 µM. Moreover, the “Biochemical activity ratio B/V600E” value in data set [2] is 0.1-10. Also, the “Biochemical activity ratio B/C” value in data set [2] is given as over 10. For the same compound, in data set [3], the “Biochemical activity ratio V600E/C” value is recorded as over 10.

A word on the IC50: it is the concentration that inhibits the measured activity by half.
